From ChEMBL document CHEMBL1275553, “Pyrosequencing to detect mutations in FKS1 that confer reduced echinocandin susceptibility in Candida albicans” (2008)
≈ marks a conversion by molar mass, not a printed value. Starred links: 1 amine or outer side, 2 acyl side, 3 side chain; linkers in the order of their positions; H or OH if unused. Positions of bridges follow the written chain, without caps; N, C: chain ends. Non-standard residues stand in square brackets, D forms with d. Residues, ends and D or L forms follow the SMILES beside them. *: point of attachment. hTyr(3S-OH,4S-OH,3'-OSO3H) = N[C@H](C(=O)O)[C@H](O)[C@@H](O)c1ccc(O)c(OS(=O)(=O)O)c1; pTerphenylCO(4''-OnC5H11) = CCCCCOc1ccc(-c2ccc(-c3ccc(C(=O)*)cc3)cc2)cc1; Orn(4R-OH,5R-OH) = O=C([C@H](C[C@@H](O)[C@@H](O)N[*:3])N[*:1])[*:2]; hTyr(3S-OH,4S-OH) = N[C@H](C(=O)O)[C@H](O)[C@@H](O)c1ccc(O)cc1; Pro(3S-OH,4S-Me) = C[C@H]1CN[C@H](C(=O)O)[C@H]1O; X1 = CCCCCOc1ccc(-c2cc(-c3ccc(C(=O)*)cc3)no2)cc1; Gln(3R-OH) = NC(=O)C[C@@H](O)[C@H](N)C(=O)O; Hyp = O=C(O)[C@@H]1C[C@@H](O)CN1

Assays:
Format in all cases: functional
Candida albicans [1] = assay: Antifungal activity against Candida albicans 32746 expressing FKS1 F641S mutant after 24 hrs by broth microdilution method; conditions: Candida albicans, 32746, 24 h
Candida albicans [2] = assay: Antifungal activity against Candida albicans 41301 expressing FKS1 F641S mutant after 24 hrs by broth microdilution method in presence of 50% human serum; conditions: Candida albicans, 41301, 24 h
Candida albicans [3] = assay: Antifungal activity against Candida albicans 41301 expressing FKS1 F641S mutant after 24 hrs by broth microdilution method; conditions: Candida albicans, 41301, 24 h
Candida albicans [4] = assay: Antifungal activity against Candida albicans 42379 expressing FKS1 F645P mutant after 24 hrs by broth microdilution method; conditions: Candida albicans, 42379, 24 h
Candida albicans [5] = assay: Antifungal activity against Candida albicans 53264 expressing FKS1 F645P mutant after 24 hrs by broth microdilution method in presence of 50% human serum; conditions: Candida albicans, 53264, 24 h
Candida albicans [6] = assay: Antifungal activity against Candida albicans 42286 expressing wild type FKS1 after 24 hrs by broth microdilution method; conditions: Candida albicans, 42286, 24 h
Candida albicans [7] = assay: Antifungal activity against Candida albicans 4254 expressing FKS1 F641S mutant after 24 hrs by broth microdilution method; conditions: Candida albicans, 4254, 24 h
Candida albicans [8] = assay: Antifungal activity against Candida albicans 41509 expressing FKS1 F641S mutant after 24 hrs by broth microdilution method; conditions: Candida albicans, 41509, 24 h
Candida albicans [9] = assay: Antifungal activity against Candida albicans 42379 expressing FKS1 F645P mutant after 24 hrs by broth microdilution method in presence of 50% human serum; conditions: Candida albicans, 42379, 24 h
Candida albicans [10] = assay: Antifungal activity against Candida albicans 43001 expressing FKS1 F641S mutant after 24 hrs by broth microdilution method; conditions: Candida albicans, 43001, 24 h
Candida albicans [11] = assay: Antifungal activity against Candida albicans 4715 expressing FKS1 F641S mutant after 24 hrs by broth microdilution method in presence of 50% human serum; conditions: Candida albicans, 4715, 24 h
Candida albicans [12] = assay: Antifungal activity against Candida albicans 32746 expressing FKS1 F641S mutant after 24 hrs by broth microdilution method in presence of 50% human serum; conditions: Candida albicans, 32746, 24 h
Candida albicans [13] = assay: Antifungal activity against Candida albicans 42996 expressing FKS1 F641S mutant after 24 hrs by broth microdilution method in presence of 50% human serum; conditions: Candida albicans, 42996, 24 h
Candida albicans [14] = assay: Antifungal activity against Candida albicans 53264 expressing FKS1 F645P mutant after 24 hrs by broth microdilution method; conditions: Candida albicans, 53264, 24 h
Candida albicans [15] = assay: Antifungal activity against Candida albicans 42286 expressing wild type FKS1 after 24 hrs by broth microdilution method in presence of 50% human serum; conditions: Candida albicans, 42286, 24 h
Candida albicans [16] = assay: Antifungal activity against Candida albicans SC5314 expressing wild type FKS1 after 24 hrs by broth microdilution method in presence of 50% human serum; conditions: SC5314, 24 h
Candida albicans [17] = assay: Antifungal activity against Candida albicans 4715 expressing FKS1 F641S mutant after 24 hrs by broth microdilution method; conditions: Candida albicans, 4715, 24 h
Candida albicans [18] = assay: Antifungal activity against Candida albicans 43001 expressing FKS1 F641S mutant after 24 hrs by broth microdilution method in presence of 50% human serum; conditions: Candida albicans, 43001, 24 h
Candida albicans [19] = assay: Antifungal activity against Candida albicans SC5314 expressing wild type FKS1 after 24 hrs by broth microdilution method; conditions: SC5314, 24 h
Candida albicans [20] = assay: Antifungal activity against Candida albicans 4254 expressing FKS1 F641S mutant after 24 hrs by broth microdilution method in presence of 50% human serum; conditions: Candida albicans, 4254, 24 h
Candida albicans [21] = assay: Antifungal activity against Candida albicans 2762 expressing FKS1 F641S mutant after 24 hrs by broth microdilution method; conditions: Candida albicans, 2762, 24 h
Candida albicans [22] = assay: Antifungal activity against Candida albicans 5415 expressing FKS1 F645P/H mutant after 24 hrs by broth microdilution method in presence of 50% human serum; conditions: Candida albicans, 5415, 24 h
Candida albicans [23] = assay: Antifungal activity against Candida albicans 2762 expressing FKS1 F641S mutant after 24 hrs by broth microdilution method in presence of 50% human serum; conditions: Candida albicans, 2762, 24 h
Candida albicans [24] = assay: Antifungal activity against Candida albicans 5415 expressing FKS1 F645P/H mutant after 24 hrs by broth microdilution method; conditions: Candida albicans, 5415, 24 h
Candida albicans [25] = assay: Antifungal activity against Candida albicans 41509 expressing FKS1 F641S mutant after 24 hrs by broth microdilution method in presence of 50% human serum; conditions: Candida albicans, 41509, 24 h
Candida albicans [26] = assay: Antifungal activity against Candida albicans 42996 expressing FKS1 F641S mutant after 24 hrs by broth microdilution method; conditions: Candida albicans, 42996, 24 h

Work on CC[C@H](C)C[C@H](C)CCCCCCCCC(=O)N[C@H]1C[C@@H](O)[C@@H](NCCN)NC(=O)[C@@H]2[C@@H](O)CCN2C(=O)[C@H]([C@H](O)CCN)NC(=O)[C@H]([C@H](O)[C@@H](O)c2ccc(O)cc2)NC(=O)[C@@H]2C[C@@H](O)CN2C(=O)[C@H]([C@@H](C)O)NC1=O [CASPOFUNGIN] yielded an MIC (Candida albicans [1]) of 4 µg/mL (≈ 3.66 µM), an MIC (Candida albicans [2]) of 8 µg/mL and an MIC (Candida albicans [3]) of 4 µg/mL (≈ 3.66 µM). For the same molecule, the MIC (Candida albicans [4]) was 8 µg/mL (≈ 7.32 µM), the MIC (Candida albicans [5]) was greater than 32 µg/mL and the MIC (Candida albicans [6]) was 2 µg/mL (≈ 1.83 µM). For the same molecule, the MIC (Candida albicans [7]) was 2 µg/mL (≈ 1.83 µM), the MIC (Candida albicans [8]) was 4 µg/mL (≈ 3.66 µM) and the MIC (Candida albicans [9]) was greater than 32 µg/mL. It also gave an MIC (Candida albicans [10]) of 4 µg/mL (≈ 3.66 µM), an MIC (Candida albicans [11]) of 8 µg/mL and an MIC (Candida albicans [12]) of 4 µg/mL. For the same molecule, the MIC (Candida albicans [13]) was 8 µg/mL, the MIC (Candida albicans [14]) was 4 µg/mL (≈ 3.66 µM) and the MIC (Candida albicans [15]) was 4 µg/mL. The MIC (Candida albicans [16]) was 0.25 µg/mL, the MIC (Candida albicans [17]) was 2 µg/mL (≈ 1.83 µM) and the MIC (Candida albicans [18]) was 8 µg/mL. It also gave an MIC (Candida albicans [19]) of 0.125 µg/mL (≈ 0.114 µM), an MIC (Candida albicans [20]) of 4 µg/mL and an MIC (Candida albicans [21]) of 4 µg/mL (≈ 3.66 µM). It also gave an MIC (Candida albicans [22]) of 32 µg/mL, an MIC (Candida albicans [23]) of 8 µg/mL and an MIC (Candida albicans [24]) of 8 µg/mL (≈ 7.32 µM). It also gave an MIC (Candida albicans [25]) of 8 µg/mL and an MIC (Candida albicans [26]) of 4 µg/mL (≈ 3.66 µM).
For CCCCCOc1ccc(-c2ccc(-c3ccc(C(=O)N[C@H]4C[C@@H](O)[C@@H](O)NC(=O)[C@@H]5[C@@H](O)[C@@H](C)CN5C(=O)[C@H]([C@@H](C)O)NC(=O)[C@H]([C@H](O)[C@@H](O)c5ccc(O)cc5)NC(=O)[C@@H]5C[C@@H](O)CN5C(=O)[C@H]([C@@H](C)O)NC4=O)cc3)cc2)cc1 [ANIDULAFUNGIN] ({pTerphenylCO(4''-OnC5H11)}-[Orn(4R-OH,5R-OH)]T[Hyp][hTyr(3S-OH,4S-OH)]T[Pro(3S-OH,4S-Me)]; lactam 1-C), the MIC (Candida albicans [1]) was 0.25 µg/mL (≈ 0.219 µM), the MIC (Candida albicans [2]) was 8 µg/mL and the MIC (Candida albicans [3]) was 0.25 µg/mL (≈ 0.219 µM). For the same molecule, the MIC (Candida albicans [4]) was 0.5 µg/mL (≈ 0.438 µM), the MIC (Candida albicans [5]) was 32 µg/mL and the MIC (Candida albicans [6]) was 0.125 µg/mL (≈ 0.11 µM). It also gave an MIC (Candida albicans [7]) of 0.125 µg/mL (≈ 0.11 µM), an MIC (Candida albicans [8]) of 0.5 µg/mL (≈ 0.438 µM) and an MIC (Candida albicans [9]) of 8 µg/mL. It also gave an MIC (Candida albicans [10]) of 0.5 µg/mL (≈ 0.438 µM), an MIC (Candida albicans [11]) of 8 µg/mL and an MIC (Candida albicans [12]) of 8 µg/mL. It also gave an MIC (Candida albicans [13]) of 4 µg/mL, an MIC (Candida albicans [14]) of 1 µg/mL (≈ 0.877 µM) and an MIC (Candida albicans [15]) of 1 µg/mL. It also gave an MIC (Candida albicans [16]) of 0.5 µg/mL, an MIC (Candida albicans [17]) of 0.25 µg/mL (≈ 0.219 µM) and an MIC (Candida albicans [18]) of 4 µg/mL. The MIC (Candida albicans [19]) was 0.03 µg/mL (≈ 0.0263 µM), the MIC (Candida albicans [20]) was 2 µg/mL and the MIC (Candida albicans [21]) was 0.5 µg/mL (≈ 0.438 µM). It also gave an MIC (Candida albicans [22]) of 16 µg/mL, an MIC (Candida albicans [23]) of 4 µg/mL and an MIC (Candida albicans [24]) of 1 µg/mL (≈ 0.877 µM). It also gave an MIC (Candida albicans [25]) of 8 µg/mL and an MIC (Candida albicans [26]) of 0.125 µg/mL (≈ 0.11 µM).
Work on CCCCCOc1ccc(-c2cc(-c3ccc(C(=O)N[C@H]4C[C@@H](O)[C@@H](O)NC(=O)[C@@H]5[C@@H](O)[C@@H](C)CN5C(=O)[C@H]([C@H](O)CC(N)=O)NC(=O)[C@H]([C@H](O)[C@@H](O)c5ccc(O)c(OS(=O)(=O)O)c5)NC(=O)[C@@H]5C[C@@H](O)CN5C(=O)[C@H]([C@@H](C)O)NC4=O)cc3)no2)cc1 [MICAFUNGIN] (X1-[Orn(4R-OH,5R-OH)]T[Hyp][hTyr(3S-OH,4S-OH,3'-OSO3H)][Gln(3R-OH)][Pro(3S-OH,4S-Me)]; lactam 1-C) yielded an MIC (Candida albicans [1]) of 1 µg/mL (≈ 0.787 µM), an MIC (Candida albicans [2]) of 16 µg/mL and an MIC (Candida albicans [3]) of 0.5 µg/mL (≈ 0.394 µM). The MIC (Candida albicans [4]) was 4 µg/mL (≈ 3.15 µM), the MIC (Candida albicans [5]) was greater than 32 µg/mL and the MIC (Candida albicans [6]) was 1 µg/mL (≈ 0.787 µM). For the same molecule, the MIC (Candida albicans [7]) was 0.5 µg/mL (≈ 0.394 µM), the MIC (Candida albicans [8]) was 0.5 µg/mL (≈ 0.394 µM) and the MIC (Candida albicans [9]) was greater than 32 µg/mL. The MIC (Candida albicans [10]) was 2 µg/mL (≈ 1.57 µM), the MIC (Candida albicans [11]) was 16 µg/mL and the MIC (Candida albicans [12]) was 16 µg/mL. The MIC (Candida albicans [13]) was 32 µg/mL, the MIC (Candida albicans [14]) was 4 µg/mL (≈ 3.15 µM) and the MIC (Candida albicans [15]) was 8 µg/mL. For the same molecule, the MIC (Candida albicans [16]) was 1 µg/mL, the MIC (Candida albicans [17]) was 1 µg/mL (≈ 0.787 µM) and the MIC (Candida albicans [18]) was 16 µg/mL. The MIC (Candida albicans [19]) was 0.06 µg/mL (≈ 0.0472 µM), the MIC (Candida albicans [20]) was 8 µg/mL and the MIC (Candida albicans [21]) was 1 µg/mL (≈ 0.787 µM). For the same molecule, the MIC (Candida albicans [22]) was 32 µg/mL, the MIC (Candida albicans [23]) was 16 µg/mL and the MIC (Candida albicans [24]) was 1 µg/mL (≈ 0.787 µM). The MIC (Candida albicans [25]) was 32 µg/mL and the MIC (Candida albicans [26]) was 1 µg/mL (≈ 0.787 µM).
